The values that follow come from ChEMBL document CHEMBL4177569, “Design, synthesis and preliminary antiproliferative activity studies of new diheteroaryl thioether derivatives” (Bioorg Med Chem Lett, 2017).

What all share (type): functional, cell-based
One assay has as its system MGC-803. As to the kind of experiment: Antiproliferative activity against human MGC803 cells after 48 hrs by MTT assay. Conditions: MGC-803, 48 h. On the technique in general: Tetrazolium assays rely on reduction of a dye to a coloured formazan, in cell work by metabolically active cells.
The next assay concerns MKN-45. As to the kind of experiment: Antiproliferative activity against human MKN45 cells after 48 hrs by MTT assay. Conditions: MKN-45, 48 h.
The next assay relates to ECa-109 cell line. As to the kind of experiment: Antiproliferative activity against human EC109 cells after 48 hrs by MTT assay. Conditions: ECa-109, 48 h.
In a further assay the test system is NCI-H1650. As to the kind of experiment: Antiproliferative activity against human NCI-H1650 cells after 48 hrs by MTT assay. Conditions: NCI-H1650, 48 h.

Each structure is given as a SMILES string.

What is called IC50 is the midpoint of a concentration-inhibition curve. The low end stands for inhibition by little substance, the high end for a need for much substance. For the molecule `O=c1[nH]cc(F)c(=O)[nH]1` [FLUOROURACIL], the IC50 with MGC-803 came to 7.52 µM; in the assay with MKN-45, 8.89 µM; in the assay on ECa-109 cell line, 6.21 µM; with NCI-H1650, 14.2 µM.
